Experimental data as given in patent publication US20190225643A1, “NOVEL NUCLEOSIDE ANALOGS AND USE THEREOF IN THERAPEUTIC TREATMENT” (CORNELL UNIVERSITY, priority 2016, published 2019).

What was measured:
[1] = system: NF-κB activity in BC3NFRen-luc#3 cells; assay: NF-κB luciferase reporter assay; type: cell-based, human; details: as early as 6 hours post-treatment
Text: Exponentially growing BC3-derived reporter cell lines (BC3NFκB-luc#6 or BC3NFRen-luc#3), and unrelated luciferase expressing U251-pGL3 cells were resuspended in respective RPMI-1640 complete media, and plated in a 96-well tissue culture microplate at 7.5*10^5 cells/mL and 3*10^5 cells/mL, respectively, in the presence or absence of varying concentrations of test compounds. […]

BC3 cells [2] = assay: Trypan-blue exclusion viability, PEL cell line; type: cell-based; details: Homo sapiens, BC-3; selected PEL cell line (BC3), 48 hours; read-out: LC50 by Trypan-blue exclusion
Method: (§1) Cell viability assays were performed by plating log-phase cells in RPMI complete media with 20% FBS at 1*10^5 cells/mL, with concentrations of 6-ETI or phospho-6-ETI ranging from 0.1 nM to 100 μM. ATP content at 24, 48 and 72 hours post-treatment was measured by the CellTiter-Glo kit (Promega, Madison, Wis.), or by Trypan blue assay as indicated. The LC50 for 6-ETI in each cell line was determined using online EC50 software at changbioscience.com or using GraphPad Prism to determine the LC50 for 6-ETI, phospho-6-ETI and nucleoside analogs in MM cell lines and primary MM patient samples.

IBL1 cells = assay: Trypan-blue exclusion viability, non-PEL cell line; type: cell-based; details: Homo sapiens; selected non-PEL cell line (IBL1), 48 hours; read-out: LC50 by Trypan-blue exclusion
Method: as §1

PEL cells (BC3) = assay: Viability after zVAD-FMK pan-caspase inhibitor pre-treatment; type: cell-based, human; details: 80 μM zVAD-FMK pre-treatment, 48 hours
Method: as §1

BC3 cells [3] = assay: Propidium iodide cell cycle flow cytometry; type: cell-based, human; details: BC3, 1 μM, 24 hours
Method: BC3 cells in the exponential phase were seeded at a cell density of 2*10^5 cells/mL. Cells were treated with 0.1% DMSO or with 6-ETI at a final concentration of 1 μM 6-ETI for 24 hrs for cell cycle. Post-treatment, cells were harvested, fixed and stained in Propidium Iodide (Roche). Subsequently, stained cells were analyzed by flow cytometry using BD FACS Aria II SORP cell sorter, and phases of the cell cycle modeled using FlowJo v7.6.5.

[4] = system: DNA synthesis in BC3 cells; assay: Click-iT EdU DNA synthesis assay, BC3; type: cell-based, human; details: BC3, 1 μM, 24 hours
Method: BC3 and U266 cells were seeded at a density of 0.5 million cells/ml and treated with DMSO only, 1 μM or 1.0 μM 6-ETI for BC3 cells and 0.5 μM 6-ETI for U266 cells for 24 hrs. At 24 hrs post 6-ETI treatment, 0.5 million cells of each of the treated conditions were labeled with 10 μM of EdU for 2 hours then fixed for 30 min using 2% paraformaldehyde supplemented with 0.3M sucrose. Cells were then washed in PBS and perineabilized with 0.2% saponin, PBS with 1% BSA and 0.3M sucrose for 20 min at room temperature. During this incubation time, a click-iT cocktail mix containing, click iT reaction buffer, CuSO4, alexafluor488 and click iT reaction buffer additive was prepared according to the manufacturer's instructions. Cells were washed in PBS after permeabilization and the click-iT cocktail mix was added for 30 min at room temperature in the absence of light. To visualize DNA, cells were counterstained with Hoechst (1:1000) for another 30 min then washed and resuspended in PBS with 1% BSA. 20 μl of the resuspended cells were combined with 20 μl of mounting media Fluoromount-G (Southern biotech) and cells were mounted on Ibidi μ-slides. Cells were imaged using DeltaVision image restoration microscope (Rockefeller center).

[5] = system: BC3NFRen-luc #3 PEL xenograft; assay: PEL xenograft model (BC3NFRen-luc #3 in NOD-SCID mice); type: in vivo
Method: The BC3 in vivo xenograft model was set up as previously described (6). Essentially, ˜4-6 week old male NOD-SCID mice (Jackson Labs Stock# 001303) were injected intraperitoneally (I.P.) with 1*10^7 BC3NFRen-luc #3 cells and followed by in vivo imaging every three days. After imaging on day 5 to confirm establishment of the tumor, the mice were randomized to vehicle, low dose and high dose cohorts, with average tumor burden distributed evenly across the groups. Each dose cohort contained 10 mice. Mice were treated for nine days beginning at randomization with vehicle (PBS-Tween80), low dose 6-ETI (150 mg/kg/day), or high dose 6-ETI (300 mg/kg/day). Mice were treated with 200 mg/kg of the 6-ETI analogs (phospho-6ETI and 6-ETI cAMP) for 9 days. We monitored mice for tumor growth by live imaging and weighing, with sacrifice point determined to be a net gain or loss of 10% body weight over a week. Upon reappearance of refractory tumors, mice were re-treated for a further 9-day interval, and followed for a total of 100 days. Compound effects were assessed on overall survival, progression-free survival and tumor burden by Kaplan-Meier curves generated using GraphPad Prism software, and determined p values by 2-tailed analysis with log-rank tests.

ADK = ADK (Homo sapiens, UniProt P55263); assay: In vitro ADK kinase assay with HPLC/MS; type: biochemical; details: 37° C., 5-360 minutes
Method: The ADK kinase assay kit was purchased from Novocib, France. ADK and ATP provided in the kit were premixed into provided kinase assay buffer. The reaction at 37° C. was started by addition of 6-ETI in DMSO at T=0, followed by quenching of 10 μL of the reaction by 30 μL acetonitrile in an eppendorf tube at 5, 10, 15, 30, 60, 120, 150, 180, and 360 minutes. The quenched reaction was briefly vortexed and centrifuged at ˜7000 g, following which the supernatant was transferred into a fresh tube and stored at 4° C. for HPLC/MS analysis. A control reaction was set up containing ADK, ATP, and Inosine, in order to generate a standard peak for IMP, while ADK, DTT, and ATP controls were generated by dissolving individual kit components in a 3:1 acetonitrile:dH2O solution.
LCMS separations were performed using a Waters ACQUITY UPLC system equipped with ACQUITY PDA (diode array), Waters Micromass SQD 2000 spectrometer, and a Waters ACQUITY BEH C18 column (1.7 μm, 2.1×100 mm). The solvent system consisted of 0.1% Formic Acid in Water (Solvent A) and 0.1% Formic Acid in Acetonitrile (Solvent B). Flow was set to 0.3 mL/min, and a gradient of 5-95% Solvent B was applied over a period of 3 minutes. Total runtime was 4 minutes. Eluents were detected using a PDA at a wavelength of 254 nm. Mass data was obtained in both positive and negative electrospray mode, at a cone voltage of 30V.

[6] = system: MM cell lines JJN3, MM1S, U266 and CAG; assay: CellTiter-Glo viability assay, MM cell lines; type: cell-based
Method: as §1

Sequence of ADK (P55263 whole entry): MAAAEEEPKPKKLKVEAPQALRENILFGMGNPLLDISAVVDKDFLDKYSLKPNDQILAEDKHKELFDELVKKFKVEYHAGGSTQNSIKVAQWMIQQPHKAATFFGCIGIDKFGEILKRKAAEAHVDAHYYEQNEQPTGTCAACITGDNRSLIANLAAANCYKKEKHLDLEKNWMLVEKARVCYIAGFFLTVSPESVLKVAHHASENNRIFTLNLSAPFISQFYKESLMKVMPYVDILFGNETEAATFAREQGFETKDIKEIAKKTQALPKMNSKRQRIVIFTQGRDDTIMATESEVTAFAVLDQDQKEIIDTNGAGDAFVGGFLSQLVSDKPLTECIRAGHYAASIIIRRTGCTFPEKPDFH

`CCSc1ncnc2c1ncn2[C@@H]1O[C@H](CO)C(O)[C@@H]1O` (stereo partly drawn) [Compound 6-ETI, 6-ethylthioinosine] was tested, and the NF-κB reporter activity [1] was “inhibited NF-κB activity”, the CC50 (BC3 cells [2]) was 0.074 µM and the CC50 (IBL1 cells) was 134 µM. The “caspase dependence of induced cell death” value (PEL cells (BC3)) was “largely caspase-independent”, the cell cycle distribution (BC3 cells [3]) was “reproducible increase in the percentage of cells in S-phase” and the “DNA synthesis (EdU incorporation)” value [4] was “complete inhibition of DNA synthesis”. For the same compound, the toxicities from treatment ([5]; 150 or 300 mg/kg/day) was “no obvious toxicities”, the “tumor response by in vivo luciferase imaging” value ([5]; 150 or 300 mg/kg/day for 9 days, within three days of treatment) was “striking and immediate regression of the implanted xenograft” and the progression-free survival ([5]; 150 or 300 mg/kg/day, p<0.0001, 100 days) was “startling protective effect”. The overall survival ([5]; low dose and high dose versus untreated) was “significant prolonged overall survival”, the “phosphorylation by ADK” value (ADK) was “ADK phosphorylates 6-ETI directly” and the LC50 [6] was “high nM range”.
